Melting point and IC50 data for five compounds are collected here from patent publication US6495688B2, “Deazapurine derivatives: a new class of CRF1 specific ligands” (Neurogen Corporation, priority 1995, dated 2002).

Series [1] addresses T1, CRF receptors (Homo sapiens, UniProt P34998).
T1 sequence (P34998 24-415): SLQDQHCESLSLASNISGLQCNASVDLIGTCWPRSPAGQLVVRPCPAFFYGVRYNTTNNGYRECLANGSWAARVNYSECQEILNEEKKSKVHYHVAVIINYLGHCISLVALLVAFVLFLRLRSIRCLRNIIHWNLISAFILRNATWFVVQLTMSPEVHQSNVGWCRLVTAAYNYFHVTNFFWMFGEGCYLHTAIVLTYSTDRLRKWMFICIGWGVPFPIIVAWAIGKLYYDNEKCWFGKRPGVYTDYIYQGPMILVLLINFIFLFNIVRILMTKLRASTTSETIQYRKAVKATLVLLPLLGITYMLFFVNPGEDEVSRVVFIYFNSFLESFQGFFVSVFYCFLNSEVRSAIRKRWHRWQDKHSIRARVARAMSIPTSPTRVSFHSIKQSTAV
As to the kind of experiment: CRF receptor binding assay (125I-CRF displacement). Particulars: membrane preparation, 125I-CRF 100 pM, room temperature 2 hours. As to the method:
Assay for CRF Receptor Binding Activity
CRF receptor binding was performed using a modified version of the assay described by Grigoriadis and De Souza (Biochemical, Pharmacological, and Autoradiographic Methods to Study Corticotropin-Releasing Factor Receptors. Methods in Neurosciences, Vol. 5, 1991). Membrane pellets containing CRF receptors were resuspended in 50 mM Tris buffer pH 7.7 containing 10 mM MgCl2 and 2 mM EGTA and centrifuged for 10 minutes at 48000 g. Membranes were washed again and brought to a final concentration of 1500 μg/ml in binding buffer (Tris buffer above with 0.1% BSA, 0.15 mM bacitracin and 0.01 mg/ml aprotinin.). For the binding assay, 100 ul of the membrane preparation was added to 96 well microtube plates containing 100 μl of ^125I-CRF (SA 2200 Ci/mmol, final concentration of 100 pM) and 50 μl of drug. Binding was carried out at room temperature for 2 hours. Plates were then harvested on a Brandel 96 well cell harvester and filters were counted for gamma emissions on a Wallac 1205 Betaplate liquid scintillation counter. Non specific binding was defined by 1 μM cold CRF. IC50 values were calculated with the non-linear curve fitting program RS/1 (BBN Software Products Corp., Cambridge, Mass.).

Structures are written as SMILES. Counter-ions that a name gives are not always drawn.

As for `CCCN(CC1CC1)c1ncnc2c(-c3c(C)cc(C)cc3C)cn(C)c12` (as salt: HCl) [Compound 1, N-cyclopropylmethyl-N-propyl-5-methyl-7-(2,4,6-trimethylphenyl)-5H-pyrrolo[3,2-d]pyrimidin-4-amine], the melting point – broadly, the temperature of the solid-liquid transition – was in the range of 205 to 207 °C.
Take `CCCN(CC1CC1)c1ncnc2c(-c3c(C)cc(C)cc3C)cn(C)c12` [Compound 1, N-cyclopropylmethyl-N-propyl-5-methyl-7-(2,4,6-trimethylphenyl)-5H-pyrrolo[3,2-d]pyrimidin-4-amine]: the IC50 (in general, the midpoint of a concentration-inhibition curve) in series [1] is 110 nM.
In the case of `CCCN(CCC)c1ncnc2c(-c3c(C)cc(C)cc3C)cn(C)c12` [Compound 2, N,N-Dipropyl-5-methyl-7-(2,4,6trimethylphenyl)-5H-pyrrolo[3,2-d]pyrimidin-4-amine], the melting point fell in the range of 116 to 118 °C.
Regarding `CCCCN(CC)c1ncnc2c(-c3c(C)cc(C)cc3C)cn(C)c12` [Compound 5, N-Butyl-N-Ethyl-5-methyl-7-(2,4,6trimethylphenyl)-5H-pyrrolo[3,2-d]pyrimidin-4-amine], the melting point lay within 126 to 128 °C. The half-maximal inhibitory concentration (IC50) in series [1] is 500 nM.
The compound `Cc1cc(C)c(-c2cn(C)c3c(N4CCCCCC4)ncnc23)c(C)c1` [Compound 7, 4-(1-Homopiperidinyl)-5-methyl-7-(2,4,6-trimethylphenyl)-5H-pyrrolo[3,2-d]pyrimidine] gave a melting point of 140 to 142 °C.
